Test results from US20130237557A1, “TREATMENT” (UCL BUSINESS PLC, priority 2010, published 2013).
“Also recorded” adds a separate entry of the source.

Tests used:
sham operated rat [1] = assay: Plasma biochemistry in sham operated rats (colorimetry, Cobas Integra); type: in vivo; conditions: sham rats treated vs sham operated rats
Experimental: (§1) 29 bile duct ligated rats and 17 sham operated rats were studied at the end of four weeks. The animals were randomised to receive a placebo (saline) or an alpha 2a antagonist (BRL 44408, Sigma, UK). The dose applied was 10 mgs/Kg by sub cutaneous injection: two doses were delivered 24 hours prior to study.
(§2) Plasma biochemistry was measured by colorimetry using a Cobas Integra. Alpha 2a adrenergic receptor (ADRA 2a) and Nuclear Factor κ B (NFκB) protein expression were assessed by western blotting. ADRA2a expression was determined by immunohistochemistry.
(§3) Data are shown as median (range) or mean±standard error (SEM). Two tailed unpaired t-test was used to define difference between the means of normally distributed data of equal variance. For data that was not equally distributed, a Mann-Whitney test was used. Comparison of multiple groups was by analysis of variance (ANOVA) with a Bonferroni correction for multiple comparison.

[2] = test system: bile duct ligated (BDL) rat; assay: Haemodynamics in bile duct ligated (BDL) rats treated with alpha 2a antagonist; type: in vivo; conditions: for mean arterial pressure (MAP): two doses 24 hours prior to study, vs placebo/untreated BDL; for hepatic arterial blood flow: vs BDL treated with saline, Transonic flow probe
Description: (§4) These experiments utilised an established animal model of cirrhosis, the bile duct ligated (BDL) rat. BDL rats may be generated by methods known in the art. For example, male Sprague-Dawley rats (200-250 g) may be used for this procedure. Following anaesthetisation, a mid-line laparotamy may be performed, the bile duct exposed, triply ligated with 4.0 silk suture, and severed between the second and third ligature. The wound is then closed in layers with absorbable suture, and the animal allowed to recover in a quiet room before being returned to the animal storage facility.
as §1
(§5) Mean arterial pressure was measured via a transducer through the left carotid artery. Portal pressure readings were taken by direct puncture of portal vein and transducer. Portal vein and hepatic artery flow measurements were done with a transonic flow probe and meter. All measurements were done in triplicates and recorded in data collection sheets.
as §3

[3] = test system: bile duct ligated (BDL) rat; assay: Plasma biochemistry in BDL rats (colorimetry, Cobas Integra); type: in vivo
Description: as §4, §1, §2, §3

sham operated rat [4] = assay: Haemodynamics in sham operated rats treated with alpha 2a antagonist; type: in vivo
Experimental: as §1, §5, §3

[5] = test system: bile duct ligated (BDL) rat; assay: Brain water content in BDL rats; type: in vivo; conditions: vs untreated BDL
Description: as §4, §1
The brain water content signifies the amount of brain swelling that occurs as a result of inflammation in the brain.

[6] = test system: Nuclear Factor κ B (NFκB); assay: NFκB protein expression in liver tissue of BDL rats by western blotting; type: in vivo, rat; conditions: vs untreated BDL
Description: as §4, §1, §2
The protein expression was assessed by the western blotting technique. NFkB is an important regulator of cell signalling pathways including apoptosis and inflammation.

Structure (SMILES): CC1c2ccccc2CN1CC1=NCCN1 (centres unmarked) [BRL 44408, 2-[(4,5-Dihydro-1H-imidazol-2-yl)methyl]-2,3-dihydro-1-methyl-1H-isoindole]
- plasma creatinine (sham operated rat [1]): no difference
- mean arterial pressure (MAP) ([2]; BDL rats, 10 mgs/Kg sub cutaneous): significantly improved; also recorded: increased
- mean arterial pressure (MAP) ([2]; BDL rats, 10 mgs/Kg sub cutaneous, listed as ADRA2a antagonist): significant increase
- portal pressure ([2]; BDL rats, 10 mgs/Kg sub cutaneous, two doses, treated group value (placebo 18.0±3.7), p<0.001): 11.4±3.4 mmHg
- cardiac output ([2]; BDL rats, heart rate x stroke volume from echocardiogram, vs untreated BDL): improved significantly
- intra hepatic resistance ([2]; BDL rats, post treatment value (untreated 1.1±0.2), p<0.05, portal pressure divided by hepatic blood flow): 0.5±0.1 mmHg/ml/min
- portal pressure ([2]; BDL rats, vs BDL rats treated with saline, change in words): significantly reduced; also recorded: lowered
- hepatic arterial blood flow ([2]; BDL rats): markedly increased
- hepatic arterial blood flow ([2]; BDL rats, listed as BRL44408): improved
- intra hepatic resistance ([2]; BDL rats, vs untreated BDL, change in words): significantly reduced; also recorded: lowered
- portal venous blood flow ([2]; treated group vs placebo): without significant change
- liver specific alanine aminotransferase (ALT) ([3]; p=0.5): non significant increase
- plasma ammonia ([3]; vs untreated BDL): trend towards reduction; also recorded: reduced
- plasma aspartate aminotransaminase (AST) ([3]; vs untreated BDL): significant reduction; also recorded: reduced
- plasma lactate ([3]; vs untreated BDL): significant reduction
- plasma lactate ([3]; vs untreated BDL, listed as BRL): significantly reduced
- plasma creatinine ([3]; vs untreated BDL, marker for renal function): trend towards reduction; also recorded: improved; also recorded: reduced
- mean arterial pressure (MAP) (sham operated rat [4]; sham operated rats, 10 mgs/Kg sub cutaneous, treated vs untreated sham): no difference
- hepatic arterial blood flow (sham operated rat [4]; sham operated rats, vs sham treated with saline): improvement
- portal pressure (sham operated rat [4]; sham rats treated vs saline): no difference
- intra hepatic resistance (sham operated rat [4]; sham rats treated vs sham rats): no difference
- brain water content [5]: significantly decreased; also recorded: reduced
- NFkB protein expression in the liver tissue [6]: reduced
